Like-named read-outs stand apart in the source and are kept apart here.
How the values were obtained:
dsDNA [1] = assay: Fluorescence titrations (affinity towards dsDNA); format: binding; settings: for Kd: affinity towards dsDNA; for RFU + DNA: with DNA; for RFU − DNA: without DNA; for RFU for slits 5/5: value given in Slits column for slits 5/5 nm instead of 10/10
Description: The affinity of the TramTO derivatives towards dsDNA is usually higher than the affinity of the derivatives without the modified side chain according to this invention. […] KD values are determined as is well known to any person being of ordinary skill in the art.

[2] = Molar extinction coefficients; format: physicochemical
[3] = tested on: live and dead bacteria (E. Coli); assay: Flow cytometry of live versus dead cells labelled with 6-TramTO-1; format: cell-based; settings: 5 μM dye for 5 min
Description: The flow cytometric measurements are performed by use of the LSR Fortessa cell analyser (BD Biosciences, USA) or other commercially available apparatuses (e.g. FACSAria III (BD Biosciences, USA) and Guava easyCyte (Merck Millipore, USA)). […] A minimum of 10000 events per sample is analysed. The measurements are each performed in at least two independent experiments. Bacteria are labelled for 15 min with 5 μM of the corresponding dyes. […] For 6-TramTO-1 (1) one can see clear labelling when 5 μM of the dye are added for only 5 min before the measurements, dead cells (treated with 70% isopropanol for 1 h, then washed with saline 3×) being labelled about 10× stronger: MFI 135 vs 1337. FIGS. 5A-5C show additional data. […] FIG. 5B: The graphs of FIG. 5B show flow cytometric data of mixtures of dead and live E. Coli treated with left graph: PI (20 μM) and right graph: 6-TramTO-1 (1, 5 μM) for 5 min showing that the TramTO and PI give the same results. • The parameter settings regarding excitation/emission (as far as they are applied) are equivalent to those described within the legend of FIG. 5A.

[4] = solvent DMSO; cited from earlier work
HeLa cells = assay: Viability of HeLa cells, resazurin fluorescence-based cell viability assay; settings: dye concentration of 10 μM
dsDNA [5] = settings: affinity towards dsDNA; read-out: KD (literature value); cited from earlier work

Row | Kd (dsDNA [1]) | Molar extinction coefficient ([2]; solvent H2O) | Compound | RFU + DNA (dsDNA [1]; slits 5/5 nm) | RFU − DNA (dsDNA [1]; slits 5/5 nm) | RFU for slits 5/5 (dsDNA [1]) | RFU + DNA (dsDNA [1]; slits 10/10 nm) | RFU − DNA (dsDNA [1]; slits 10/10 nm) | also measured
1 | 45 ± 1.05 µM | – | CC[n+]1ccc(/C=C2\Sc3ccccc3N2C)c2ccccc21 [CH3TO-3 (6), (Z)-1-ethyl-4-((3-methylbenzo[d]thiazol-2(3H)-ylidene)methyl)quinolin-1-ium, reference compound] | 210 RFU | 6.8 RFU | – | – | – | Molar extinction coefficient ([2]; solvent DMSO): 37153 M⁻¹ cm⁻¹
2 | 8.63 ± 4.34 µM | 61813 M⁻¹ cm⁻¹ | CC[n+]1ccc(/C=C2\Sc3ccccc3N2CCCCCCn2cc(CN)nn2)c2ccccc21 [6-TramTO-1 (1), (Z)-4-((3-(6-(4-(ammoniomethyl)-1H-1,2,3-triazol-1-yl)hexyl)benzo[d]thiazol-2(3H)-ylidene)methyl)-1-ethylquinolin-1-ium] | 460 RFU | 1.2 RFU | – | – | – | affinity towards dsDNA, superior to 6-TramTAS (dsDNA [1]; ratio versus 6-TramTAS): ~3 ×; affinity towards dsDNA, superior to 6-TramTO-3 (dsDNA [1]; ratio versus 6-TramTO-3): ~2 ×; labelling of dead cells stronger than live cells [3]: about 10 ×; MFI ([3]; dead cells (70% isopropanol for 1 h)): 1337; MFI ([3]; live cells): 135
3 | 20.6 ± 6.67 µM | – | CC[n+]1ccc(/C=C2\Sc3ccccc3N2C)c2ccccc21 [CH3TO-1 (4), (Z)-1-ethyl-4-((3-methylbenzo[d]thiazol-2(3H)-ylidene)methyl)quinolin-1-ium, reference compound] | – | – | ~10 RFU) | 125 RFU | 0.2 RFU | Molar extinction coefficient (lit.) [4]: lit. 63000 M^−1cm^−1
4 | – | – | CN(C)c1ccc(/C=C/c2sc3ccccc3[n+]2CCCCCCn2cc(CN)nn2)cc1 [6-TramTAS (2), (E)-3-(6-(4-(aminomethyl)-1H-1,2,3-triazol-1-yl)hexyl)-2-(4-(dimethylamino)styryl)benzo[d]thiazol-3-ium] | – | – | ~8 RFU) | 90 RFU | 2.9 RFU | Molar extinction coefficient ([2]; solvent MeCN): 70463 M⁻¹ cm⁻¹
5 | 23 ± 1.81 µM | 59403 M⁻¹ cm⁻¹ | CC[n+]1ccc(/C=C/C=C2\Sc3ccccc3N2CCCCCCn2cc(CN)nn2)c2ccccc21.[I-] [6-TramTO-3 (3)] | 280 RFU | 11.8 RFU | – | – | – | viability of HeLa cells compared to reference (HeLa cells): about 97%; Kd (dsDNA [5]): 19.5 ± 2.6 µM
